Laboratory results: ChEMBL document CHEMBL5465560, “Selectivity Literature for EUbOPEN Chemogenomic Library” (2024)

Key:
[1] = biological target: Ephrin type-A receptor 2 (Homo sapiens) (UniProt P29317); experiment: Selectivity interaction (Kinase panel (Z-LYTE Assay)) EUB0001632a EPHA2; conditions: at 10 µM
[2] = biological target: SRSF protein kinase 2 (Homo sapiens) (UniProt P78362); experiment: Selectivity interaction (KinomeScan (DiscoverX)) EUB0000607a SRPK2; conditions: at 10 µM
[3] = biological target: Ribosomal protein S6 kinase alpha-1 (Homo sapiens, UniProt Q15418); experiment: Selectivity interaction (ActivX KiNativ screen (kinase selectivity in THP-1 cell lysates)) EUB0000639a RPS6KA1; assay type: subcellular; conditions: lysate, at 1 µM
Chain of Ribosomal protein S6 kinase alpha-1 (Q15418 whole entry): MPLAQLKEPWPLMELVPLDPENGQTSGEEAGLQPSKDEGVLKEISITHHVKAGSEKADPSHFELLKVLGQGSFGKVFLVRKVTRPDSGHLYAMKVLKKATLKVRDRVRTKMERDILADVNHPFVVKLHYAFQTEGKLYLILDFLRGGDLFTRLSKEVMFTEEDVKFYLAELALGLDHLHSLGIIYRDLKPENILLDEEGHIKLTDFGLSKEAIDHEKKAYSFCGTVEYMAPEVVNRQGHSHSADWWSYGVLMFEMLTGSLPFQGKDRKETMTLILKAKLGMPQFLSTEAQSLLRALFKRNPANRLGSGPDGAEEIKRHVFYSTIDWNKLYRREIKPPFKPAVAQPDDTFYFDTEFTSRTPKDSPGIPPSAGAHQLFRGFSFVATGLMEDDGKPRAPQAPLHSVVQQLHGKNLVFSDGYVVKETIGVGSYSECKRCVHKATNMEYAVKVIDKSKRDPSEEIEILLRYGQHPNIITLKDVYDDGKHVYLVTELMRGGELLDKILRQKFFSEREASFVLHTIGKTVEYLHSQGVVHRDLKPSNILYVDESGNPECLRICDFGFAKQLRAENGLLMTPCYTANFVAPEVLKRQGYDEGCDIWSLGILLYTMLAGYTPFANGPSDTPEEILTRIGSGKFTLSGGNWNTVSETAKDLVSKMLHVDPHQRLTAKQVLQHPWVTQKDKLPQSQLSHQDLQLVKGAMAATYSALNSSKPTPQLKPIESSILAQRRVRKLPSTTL

[4] = biological target: CDK6/cyclin D1 (Homo sapiens) (UniProt P24385+Q00534); experiment: (§1) Selectivity interaction (ProQinase) EUB0000171b CDK6; assay type: protein-complex assay
[5] = biological target: CDK6/cyclin D3 (Homo sapiens) (UniProt P30281+Q00534); experiment: as §1; assay type: protein-complex assay
[6] = biological target: T1, Dual specificity mitogen-activated protein kinase kinase 6 (Homo sapiens) (UniProt P52564); experiment: Selectivity interaction (KinomeScan (DiscoverX)) EUB0000695a MAP2K6; conditions: at 100 nM
T1 sequence (whole entry): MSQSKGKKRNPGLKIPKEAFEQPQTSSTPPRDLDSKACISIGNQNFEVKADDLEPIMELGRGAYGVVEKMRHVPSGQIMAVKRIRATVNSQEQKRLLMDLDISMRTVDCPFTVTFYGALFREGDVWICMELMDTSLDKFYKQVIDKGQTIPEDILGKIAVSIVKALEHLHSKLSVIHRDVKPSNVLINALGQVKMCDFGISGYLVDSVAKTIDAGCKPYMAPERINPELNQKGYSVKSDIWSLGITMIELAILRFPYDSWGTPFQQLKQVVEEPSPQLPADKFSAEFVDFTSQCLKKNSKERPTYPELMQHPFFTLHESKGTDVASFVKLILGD

[7] = biological target: Mitogen-activated protein kinase kinase kinase kinase 1 (Homo sapiens) (UniProt Q92918); experiment: Selectivity interaction (KinomeScan (DiscoverX)) EUB0000695a MAP4K1; conditions: at 100 nM
Chain of Mitogen-activated protein kinase kinase kinase kinase 1 (Homo sapiens) (Q92918 whole entry, looked up): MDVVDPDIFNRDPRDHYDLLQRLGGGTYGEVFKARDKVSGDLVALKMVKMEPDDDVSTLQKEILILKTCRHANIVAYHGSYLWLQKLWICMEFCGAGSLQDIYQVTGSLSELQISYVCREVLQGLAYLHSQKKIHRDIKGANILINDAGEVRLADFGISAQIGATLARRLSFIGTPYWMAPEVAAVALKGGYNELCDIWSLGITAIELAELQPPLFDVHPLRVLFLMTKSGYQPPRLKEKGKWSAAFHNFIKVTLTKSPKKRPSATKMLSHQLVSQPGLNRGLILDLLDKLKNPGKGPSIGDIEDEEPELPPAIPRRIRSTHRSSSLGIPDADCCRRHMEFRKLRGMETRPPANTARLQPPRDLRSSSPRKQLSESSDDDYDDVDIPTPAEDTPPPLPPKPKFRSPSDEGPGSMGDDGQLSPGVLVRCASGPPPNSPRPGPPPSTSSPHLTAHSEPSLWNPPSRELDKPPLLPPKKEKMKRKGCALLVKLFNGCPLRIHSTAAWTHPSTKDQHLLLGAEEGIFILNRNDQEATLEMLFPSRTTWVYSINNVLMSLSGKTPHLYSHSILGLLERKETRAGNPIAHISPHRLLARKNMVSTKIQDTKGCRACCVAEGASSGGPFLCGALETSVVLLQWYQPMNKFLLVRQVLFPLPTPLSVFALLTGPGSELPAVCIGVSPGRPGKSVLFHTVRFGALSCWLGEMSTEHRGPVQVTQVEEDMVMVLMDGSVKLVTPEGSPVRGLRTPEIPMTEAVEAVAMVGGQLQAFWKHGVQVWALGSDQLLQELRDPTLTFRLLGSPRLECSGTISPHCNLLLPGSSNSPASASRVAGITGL

[8] = biological target: Serine/threonine-protein kinase 35 (Homo sapiens) (UniProt Q8TDR2); experiment: Selectivity interaction (KinomeScan (DiscoverX)) EUB0000695a STK35; conditions: at 100 nM
Chain of Serine/threonine-protein kinase 35 (Homo sapiens) (Q8TDR2 whole entry): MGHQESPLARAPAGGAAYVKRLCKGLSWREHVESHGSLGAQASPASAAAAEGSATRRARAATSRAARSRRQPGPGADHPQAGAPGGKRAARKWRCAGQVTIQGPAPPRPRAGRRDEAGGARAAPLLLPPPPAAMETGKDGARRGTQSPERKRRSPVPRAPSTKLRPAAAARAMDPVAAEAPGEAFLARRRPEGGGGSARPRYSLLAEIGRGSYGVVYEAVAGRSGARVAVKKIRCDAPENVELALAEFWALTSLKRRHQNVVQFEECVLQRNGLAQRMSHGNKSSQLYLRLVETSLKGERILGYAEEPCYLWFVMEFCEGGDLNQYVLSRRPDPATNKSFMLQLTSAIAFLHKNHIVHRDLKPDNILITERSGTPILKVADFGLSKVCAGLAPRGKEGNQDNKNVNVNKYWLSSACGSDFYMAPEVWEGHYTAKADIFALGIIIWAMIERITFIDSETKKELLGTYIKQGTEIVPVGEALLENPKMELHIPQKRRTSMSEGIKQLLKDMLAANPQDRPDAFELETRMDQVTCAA

[9] = biological target: Tyrosine-protein kinase Lyn (Homo sapiens, UniProt P07948); experiment: Selectivity interaction (KinaseProfiler screening (Millipore)) EUB0000601a LYN; conditions: at 3 µM
Chain of Tyrosine-protein kinase Lyn (P07948 2-512 limits assumed): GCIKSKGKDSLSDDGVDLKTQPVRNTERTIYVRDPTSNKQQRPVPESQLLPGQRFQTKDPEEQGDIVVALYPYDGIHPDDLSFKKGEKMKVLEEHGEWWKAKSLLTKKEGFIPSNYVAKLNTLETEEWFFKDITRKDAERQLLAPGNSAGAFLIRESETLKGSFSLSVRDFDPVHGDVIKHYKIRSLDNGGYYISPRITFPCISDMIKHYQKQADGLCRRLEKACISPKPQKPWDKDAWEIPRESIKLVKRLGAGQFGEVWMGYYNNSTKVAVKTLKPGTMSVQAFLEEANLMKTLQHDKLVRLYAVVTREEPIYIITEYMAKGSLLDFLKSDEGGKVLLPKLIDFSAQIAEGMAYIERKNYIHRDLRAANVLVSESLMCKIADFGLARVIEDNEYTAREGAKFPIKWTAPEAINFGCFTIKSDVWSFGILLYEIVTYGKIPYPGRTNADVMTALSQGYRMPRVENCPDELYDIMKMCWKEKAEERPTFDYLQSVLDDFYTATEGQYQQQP

[10] = biological target: Serine/threonine-protein kinase PLK3 (Homo sapiens, UniProt Q9H4B4); experiment: Selectivity interaction (KinomeScan (DiscoverX)) EUB0000595a PLK3; conditions: at 10 µM
Chain of Serine/threonine-protein kinase PLK3 (Q9H4B4 whole entry, looked up): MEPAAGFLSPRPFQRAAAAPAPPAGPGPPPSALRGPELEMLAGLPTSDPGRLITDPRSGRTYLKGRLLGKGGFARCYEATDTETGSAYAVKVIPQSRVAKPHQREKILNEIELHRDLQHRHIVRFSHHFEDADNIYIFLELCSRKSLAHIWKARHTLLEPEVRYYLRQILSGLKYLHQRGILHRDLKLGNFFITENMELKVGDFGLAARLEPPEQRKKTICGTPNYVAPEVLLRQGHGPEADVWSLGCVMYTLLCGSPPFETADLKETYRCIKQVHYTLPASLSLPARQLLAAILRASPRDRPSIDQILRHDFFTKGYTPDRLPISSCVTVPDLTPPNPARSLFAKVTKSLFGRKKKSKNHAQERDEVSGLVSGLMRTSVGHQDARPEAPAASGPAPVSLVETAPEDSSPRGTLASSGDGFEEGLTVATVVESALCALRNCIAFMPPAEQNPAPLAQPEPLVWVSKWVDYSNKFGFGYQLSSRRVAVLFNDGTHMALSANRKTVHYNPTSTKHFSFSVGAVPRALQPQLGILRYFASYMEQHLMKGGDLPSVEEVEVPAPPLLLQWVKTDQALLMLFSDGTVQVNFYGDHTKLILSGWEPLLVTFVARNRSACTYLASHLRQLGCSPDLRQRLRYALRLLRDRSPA

Aurora kinase B = Aurora kinase B (Homo sapiens, UniProt Q96GD4); experiment: Selectivity interaction (KinomeScan (DiscoverX)) EUB0000045b AURKB
Chain of Aurora kinase B (Q96GD4 whole entry): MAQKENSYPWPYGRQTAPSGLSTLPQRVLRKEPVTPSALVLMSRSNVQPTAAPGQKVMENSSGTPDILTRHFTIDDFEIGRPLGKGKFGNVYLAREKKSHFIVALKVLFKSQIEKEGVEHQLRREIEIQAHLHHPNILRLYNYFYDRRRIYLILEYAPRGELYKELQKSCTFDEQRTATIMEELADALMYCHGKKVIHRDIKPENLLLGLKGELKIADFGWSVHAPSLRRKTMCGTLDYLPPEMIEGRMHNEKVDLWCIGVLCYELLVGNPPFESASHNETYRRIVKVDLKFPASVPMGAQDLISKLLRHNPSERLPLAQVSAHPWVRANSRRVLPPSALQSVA

[11] = biological target: T2, cGMP-dependent protein kinase 1 (Homo sapiens) (UniProt Q13976); experiment: Selectivity interaction (KinomeScan (DiscoverX)) EUB0001079a PRKG1; conditions: at 1 µM
T2 sequence (whole entry): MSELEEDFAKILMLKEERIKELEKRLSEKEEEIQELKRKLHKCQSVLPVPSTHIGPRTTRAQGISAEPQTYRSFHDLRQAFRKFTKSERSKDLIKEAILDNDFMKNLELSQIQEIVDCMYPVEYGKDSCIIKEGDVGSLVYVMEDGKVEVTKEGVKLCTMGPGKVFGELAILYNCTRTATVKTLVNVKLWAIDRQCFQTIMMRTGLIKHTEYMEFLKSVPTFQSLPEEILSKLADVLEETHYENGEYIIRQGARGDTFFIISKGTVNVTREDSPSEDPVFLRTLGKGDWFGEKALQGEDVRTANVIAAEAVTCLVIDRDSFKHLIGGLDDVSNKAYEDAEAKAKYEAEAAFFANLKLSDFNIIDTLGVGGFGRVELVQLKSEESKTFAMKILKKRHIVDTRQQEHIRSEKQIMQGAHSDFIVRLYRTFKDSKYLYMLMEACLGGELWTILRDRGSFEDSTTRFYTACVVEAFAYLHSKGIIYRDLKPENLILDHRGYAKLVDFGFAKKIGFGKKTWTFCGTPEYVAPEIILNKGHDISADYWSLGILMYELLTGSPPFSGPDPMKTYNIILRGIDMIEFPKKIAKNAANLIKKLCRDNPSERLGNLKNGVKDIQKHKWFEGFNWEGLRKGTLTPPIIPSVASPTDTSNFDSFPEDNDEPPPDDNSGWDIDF

[12] = biological target: Homeodomain-interacting protein kinase 3 (Homo sapiens, UniProt Q9H422); experiment: Selectivity interaction (KinomeScan (DiscoverX)) EUB0000229b HIPK3; conditions: at 10 µM
[13] = biological target: T3, Serine/threonine-protein kinase D3 (Homo sapiens) (UniProt O94806); experiment: Selectivity interaction (KinomeScan (DiscoverX)) EUB0000229b PRKD3; conditions: at 10 µM
T3 sequence (whole entry): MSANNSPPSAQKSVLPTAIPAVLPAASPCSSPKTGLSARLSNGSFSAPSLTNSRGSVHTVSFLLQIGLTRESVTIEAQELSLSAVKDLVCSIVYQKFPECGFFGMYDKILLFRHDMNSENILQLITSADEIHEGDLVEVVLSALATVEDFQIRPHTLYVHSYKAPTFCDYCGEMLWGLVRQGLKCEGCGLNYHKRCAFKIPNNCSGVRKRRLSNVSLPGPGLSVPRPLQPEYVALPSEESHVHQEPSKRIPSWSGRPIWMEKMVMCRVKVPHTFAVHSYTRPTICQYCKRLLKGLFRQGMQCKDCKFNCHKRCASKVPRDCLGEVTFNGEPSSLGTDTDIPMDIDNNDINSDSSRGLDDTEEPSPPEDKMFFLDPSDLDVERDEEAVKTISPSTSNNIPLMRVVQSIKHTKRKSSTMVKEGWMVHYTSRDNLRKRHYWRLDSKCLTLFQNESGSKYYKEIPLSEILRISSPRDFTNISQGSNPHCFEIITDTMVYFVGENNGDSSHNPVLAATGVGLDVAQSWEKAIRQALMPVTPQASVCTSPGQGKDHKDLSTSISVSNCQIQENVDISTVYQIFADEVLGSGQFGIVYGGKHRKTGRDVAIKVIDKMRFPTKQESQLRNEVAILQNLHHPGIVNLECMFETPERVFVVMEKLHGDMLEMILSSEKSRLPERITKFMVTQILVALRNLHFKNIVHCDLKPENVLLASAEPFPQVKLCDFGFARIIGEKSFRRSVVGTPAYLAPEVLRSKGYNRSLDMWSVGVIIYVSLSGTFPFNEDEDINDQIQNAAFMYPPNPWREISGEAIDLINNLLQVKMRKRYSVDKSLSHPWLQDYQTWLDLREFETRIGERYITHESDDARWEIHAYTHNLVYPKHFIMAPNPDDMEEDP

[14] = biological target: Calcium/calmodulin-dependent protein kinase type II subunit delta (Homo sapiens) (UniProt Q13557); experiment: Selectivity interaction (KinomeScan (DiscoverX)) EUB0000092b CAMK2D; conditions: at 10 µM
Chain of Calcium/calmodulin-dependent protein kinase type II subunit delta (Homo sapiens) (Q13557 whole entry): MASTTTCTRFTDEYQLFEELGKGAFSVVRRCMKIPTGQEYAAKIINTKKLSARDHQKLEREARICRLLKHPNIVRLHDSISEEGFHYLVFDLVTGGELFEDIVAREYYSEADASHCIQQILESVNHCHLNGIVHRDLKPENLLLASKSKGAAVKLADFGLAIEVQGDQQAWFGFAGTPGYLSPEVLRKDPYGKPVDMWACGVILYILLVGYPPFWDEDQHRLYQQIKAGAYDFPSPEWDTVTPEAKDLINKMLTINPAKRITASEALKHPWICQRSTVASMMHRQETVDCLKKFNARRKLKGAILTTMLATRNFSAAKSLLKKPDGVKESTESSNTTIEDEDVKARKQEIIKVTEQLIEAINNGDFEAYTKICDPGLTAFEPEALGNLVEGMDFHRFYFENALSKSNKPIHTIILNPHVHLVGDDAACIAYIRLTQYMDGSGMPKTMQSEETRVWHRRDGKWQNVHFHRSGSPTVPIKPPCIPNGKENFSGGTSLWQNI

[15] = biological target: 5'-AMP-activated protein kinase catalytic subunit alpha-1 (Homo sapiens, UniProt Q13131); experiment: Selectivity interaction (KinomeScan (DiscoverX)) EUB0000618a PRKAA1; conditions: at 10 µM
Chain of 5'-AMP-activated protein kinase catalytic subunit alpha-1 (Q13131 whole entry, looked up): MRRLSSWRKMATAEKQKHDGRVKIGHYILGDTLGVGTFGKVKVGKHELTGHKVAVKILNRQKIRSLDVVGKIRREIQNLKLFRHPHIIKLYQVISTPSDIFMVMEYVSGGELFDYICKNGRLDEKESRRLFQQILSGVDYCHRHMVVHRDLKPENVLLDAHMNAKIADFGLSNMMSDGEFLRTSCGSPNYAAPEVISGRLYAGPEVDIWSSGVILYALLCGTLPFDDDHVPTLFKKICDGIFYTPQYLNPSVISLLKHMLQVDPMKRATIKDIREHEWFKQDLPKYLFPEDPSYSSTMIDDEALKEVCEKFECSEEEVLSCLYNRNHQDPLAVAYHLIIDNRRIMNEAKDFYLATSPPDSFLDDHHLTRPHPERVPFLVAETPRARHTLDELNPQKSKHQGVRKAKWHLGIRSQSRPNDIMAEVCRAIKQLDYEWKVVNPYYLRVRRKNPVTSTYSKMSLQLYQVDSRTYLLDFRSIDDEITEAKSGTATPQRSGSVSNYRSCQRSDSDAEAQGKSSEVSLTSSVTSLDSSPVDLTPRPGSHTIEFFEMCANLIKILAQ

Which % of control [1] does the source give for Cn1cc(-n2cnc3c(NCc4nc5cc(Cl)c(Cl)cc5[nH]4)nc(N4CCOCC4)nc32)cn1 here?
Its % of control is 14.4%.

For CNC(=O)Nc1ccc(-c2nc(N3CC4CCC(C3)O4)c3cnn(C4CCC5(CC4)OCCO5)c3n2)cc1, which % of control [2] is on record?
Its % of control is 90%.

How did the % of inhibition [3] turn out when CC[C@@H]1[C@H](F)C(=O)N[C@@H]1COc1nccc2cc(C(N)=O)c(OC)cc12 [ZIMLOVISERTIB] was run?
The % of inhibition was 8.6%.

What does the source list for C=CC(=O)Nc1cccc(C(=O)Nc2ccc(Nc3cc(-c4[nH]c(SC)nc4C)ccn3)cc2)c1?
% of control ([4]; at 1 µM): 91%; % of control ([4]; at 5 µM): 87%; % of control ([5]; at 1 µM): 93%; % of control ([5]; at 5 µM): 86%

What does the source list for Cc1cc(F)c(C(=O)Nc2cccc(-c3nncn3C(C)C)n2)cc1-n1cnc(C2CC2)c1?
% of control [6]: 100%; % of control [7]: 97%; % of control [8]: 100%

CCc1cc(Nc2nccc(-c3c(-c4ccc(OC)c(C(=O)Nc5c(F)cccc5F)c4)nc4ccccn34)n2)c(OC)cc1N1CCC(N2CCN(S(C)(=O)=O)CC2)CC1 was tested. Which % of inhibition [9] did it give?
The % of inhibition was 37%.

COCC(=O)NC/C=C/c1ccc2ncnc(Nc3ccc(Oc4ccc(C)nc4)c(C)c3)c2c1 [CP-724714] was tested. Which % of control [10] did it give?
Its % of control is 99%.

Which % of control (Aurora kinase B; at 1 µM) does the source give for C=CC(=O)Nc1cc(-n2c(=O)ccc3cnc4ccc(-c5ccc(NS(C)(=O)=O)cc5)cc4c32)ccc1C here?
The % of control was 100%.

And the % of control (Aurora kinase B; at 10 µM)?
The % of control was 75%.

With Nc1cnc(N2CCc3cc(S(=O)(=O)Nc4c(F)cc(Cl)cc4F)cc(N4CCCC4=O)c32)nc1 [TP-020n] as the molecule, how does the % of control [11] read?
The % of control was 97%.

How did the % binding [12] turn out when COc1cc(N(C)c2ccnc3ccc(C(F)(F)F)cc23)cc(OC)c1OC was run?
Its % binding is 81%.

What about the % binding [13] of the same molecule?
Its % binding is 58%.

CCC(=O)N1CCN(c2ccc(-n3c(=O)ccc4cnc5ccc(-c6cnc7ccccc7c6)cc5c43)cc2C(F)(F)F)CC1 was tested. Which % of control [14] did it give?
Its % of control is 72%.

O[C@H]1CC[C@H](Nc2ncc3nc(Nc4c(F)cc(F)cc4F)n([C@H]4CCOC4)c3n2)CC1 was tested. Which % of control [15] did it give?
The % of control was 99%.
